According to patent US20260306640A1, “TECHNOLOGIES TARGETING CELL STATES” (Auron Therapeutics, Inc., priority 2023, published 2026):

Columns and labels:
KAT2A = KAT2A (Homo sapiens, UniProt Q92830); assay: KAT2A degradation, Western Blot (Jess), NCI-H1048 cells; format: cell-based; design: degrader, Western blot (Jess); conditions: NCI-H1048 cells, KAT2A, 24 h, Western Blot, vs DMSO; read-out: KAT2A NCI-H1048 DC50
Method: (§1) MOLM-13 cells or NCI-H1048 cells were used for Western Blot analysis of KAT2A degradation. KAT2B degradation can be measured in a similar manner with NCI-H1048 cells.
(§2) H1048 cells were maintained at 37° C. in 5% CO2 and 90% humidity in HITES medium with 5% fetal bovine serum (FBS). HITES medium was […] with the following additions: 0.005 mg/ml Insulin, 0.01 mg/ml Transferrin, 30 nM Sodium selenite, 10 nM Hydrocortisone, 10 nM beta-estradiol, and extra 2 mM L-glutamine (for final concentration of 4.5 mM). Cells were plated in full media at 1 million cells/2 mL in a 6-well tissue culture treated plate with or without compounds for 24 h at 37° C. in 5% CO2.
(§3) MOLM-13 cells or NCI-H1048 cells were washed with PBS, then lysed with RIPA buffer containing 1×protease and phosphatase inhibitors (SantaCruz Biotechnologies Cat #sc-24948A). Protein was isolated by centrifugation at 12,000×g for 10 minutes at 4° C. and supernatant was collected. Protein was quantified via Bradford assay. Samples were diluted to 4 μg lysate in 16 μL RIPA buffer and then 4 μL of Jess Sample Buffer. Samples were heated at 95° C. for 5 minutes. Samples were loaded onto 12-230 kDa Jess™ Separation Module, 8×25 capillary cartridges (SM-W004, Biotechne). Antibodies loaded were: Primary antibody for KAT2A (GCN5L2 (C26A10) Rabbit mAb (3305, CST)) and for KAT2B (PCAF (C14G9)) Rabbit mAb (3378, CST) at 1:1000 and Anti-Rabbit Detection Module for Jess™ (Cat No #DM-001, Biotechne). Signal was detected by chemiluminescence.
(§4) DC50 values were determined from percent reduction of protein as compared to the DMSO control.

KAT2B = KAT2B (Homo sapiens, UniProt Q92831); assay: KAT2B degradation, Western Blot (Jess), NCI-H1048 cells; format: cell-based; design: degrader, Western blot (Jess); conditions: NCI-H1048 cells, KAT2B, 24 h, Western Blot, vs DMSO; read-out: KAT2B NCI-H1048 DC50
KAT2B, sequence (Q92831 whole entry): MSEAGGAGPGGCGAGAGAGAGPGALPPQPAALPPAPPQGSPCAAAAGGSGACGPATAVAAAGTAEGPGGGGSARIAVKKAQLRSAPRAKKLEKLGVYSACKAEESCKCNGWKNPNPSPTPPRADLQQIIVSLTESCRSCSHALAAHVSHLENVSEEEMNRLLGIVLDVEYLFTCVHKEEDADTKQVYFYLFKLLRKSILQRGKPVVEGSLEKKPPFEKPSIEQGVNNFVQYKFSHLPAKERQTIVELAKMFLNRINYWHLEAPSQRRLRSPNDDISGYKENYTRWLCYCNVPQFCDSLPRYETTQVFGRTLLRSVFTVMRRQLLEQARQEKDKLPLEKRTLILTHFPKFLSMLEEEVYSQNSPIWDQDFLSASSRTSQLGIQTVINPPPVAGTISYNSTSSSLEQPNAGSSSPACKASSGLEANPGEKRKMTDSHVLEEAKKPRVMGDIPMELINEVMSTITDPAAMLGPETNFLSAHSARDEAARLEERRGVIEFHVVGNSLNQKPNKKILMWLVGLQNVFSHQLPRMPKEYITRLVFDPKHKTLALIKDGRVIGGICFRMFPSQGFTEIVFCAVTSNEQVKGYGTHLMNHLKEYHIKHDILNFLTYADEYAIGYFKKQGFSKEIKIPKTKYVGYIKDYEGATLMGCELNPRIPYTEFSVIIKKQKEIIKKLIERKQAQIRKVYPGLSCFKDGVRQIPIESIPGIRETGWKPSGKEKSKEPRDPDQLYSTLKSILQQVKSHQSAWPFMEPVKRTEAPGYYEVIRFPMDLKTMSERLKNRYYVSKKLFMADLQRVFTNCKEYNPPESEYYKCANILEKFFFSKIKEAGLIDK
Method: as §1, §2, §3, §4

KAT2A, sequence (Q92830 whole entry): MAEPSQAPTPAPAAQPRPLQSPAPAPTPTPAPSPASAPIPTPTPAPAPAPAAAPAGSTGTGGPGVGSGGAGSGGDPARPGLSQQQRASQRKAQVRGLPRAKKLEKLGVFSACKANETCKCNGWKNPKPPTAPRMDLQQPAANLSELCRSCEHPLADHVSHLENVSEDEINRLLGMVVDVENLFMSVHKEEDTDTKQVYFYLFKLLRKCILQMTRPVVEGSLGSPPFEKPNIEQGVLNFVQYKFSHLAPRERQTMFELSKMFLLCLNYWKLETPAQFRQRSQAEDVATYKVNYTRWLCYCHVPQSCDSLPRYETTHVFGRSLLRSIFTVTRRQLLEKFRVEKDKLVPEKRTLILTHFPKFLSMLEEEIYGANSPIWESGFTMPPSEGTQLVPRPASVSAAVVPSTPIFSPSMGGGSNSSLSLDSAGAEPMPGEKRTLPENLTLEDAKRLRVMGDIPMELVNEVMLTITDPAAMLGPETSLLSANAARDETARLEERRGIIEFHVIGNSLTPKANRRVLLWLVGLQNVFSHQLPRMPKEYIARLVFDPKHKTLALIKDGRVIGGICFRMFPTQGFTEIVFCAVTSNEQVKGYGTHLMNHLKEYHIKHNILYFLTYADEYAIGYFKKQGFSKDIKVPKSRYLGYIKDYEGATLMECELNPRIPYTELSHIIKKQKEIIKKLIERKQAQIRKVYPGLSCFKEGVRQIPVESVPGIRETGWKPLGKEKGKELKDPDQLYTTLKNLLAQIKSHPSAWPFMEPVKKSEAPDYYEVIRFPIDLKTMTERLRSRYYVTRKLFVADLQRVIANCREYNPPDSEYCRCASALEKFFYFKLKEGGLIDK

DC50 (KAT2A) [nM] | DC50 (KAT2B) [nM] | SMILES
> 30 | > 30 | CN1C[C@H](Nc2cnn(C)c(=O)c2Br)C[C@H](c2ccc(CN3CCN(C4CCC(N5CCC(=O)NC5=O)CC4)CC3)cc2)C1 (stereo partly drawn) [Compound 206]
< 1 | > 30 | CN1C[C@H](Nc2cnn(C)c(=O)c2Cl)C[C@H](c2ccc(C(=O)N3CCC4(CC3)CCN(c3cnn(C5CCC(=O)NC5=O)c3)CC4)cc2)C1 (stereo partly drawn) [Compound 207]
< 1 | < 1 | CN1C[C@H](Nc2cnn(C)c(=O)c2Cl)C[C@H](c2ccc(C(=O)N3CCC4(CC3)CCN(c3ccc5c(c3)oc(=O)n5C3CCC(=O)NC3=O)CC4)cc2)C1 (stereo partly drawn) [Compound 209]
1 to 30 | < 1 | CN1C[C@H](Nc2cnn(C)c(=O)c2Br)C[C@H](c2ccc(C(=O)N3CCC4(CC3)CCN(c3cnn(C5CCC(=O)NC5=O)c3)CC4)cc2)C1 (stereo partly drawn) [Compound 210]
< 1 | < 1 | CN1C[C@H](Nc2cnn(C)c(=O)c2Br)C[C@H](c2ccc(C(=O)N3CCC4(CC3)CCN(c3ccc5c(C6CCC(=O)NC6=O)nn(C)c5c3)CC4)cc2)C1 (stereo partly drawn) [Compound 211]
1 to 30 | > 30 | CN1C[C@H](Nc2cnn(C)c(=O)c2Br)C[C@H](c2ccc(C(=O)N3CCC4(CC3)CCN(c3ccc5nnn(C6CCC(=O)NC6=O)c5c3)CC4)cc2)C1 (stereo partly drawn) [Compound 212]
< 1 | 1 to 30 | Cc1cc(N2CCC3(CCN(C(=O)c4ccc([C@H]5C[C@@H](Nc6c(F)nn(C)c(=O)c6Br)CN(C)C5)cc4)CC3)CC2)ccc1C1CCC(=O)NC1=O (stereo partly drawn) [Compound 213]
1 to 30 | > 30 | CN1C[C@H](Nc2cnn(C)c(=O)c2Cl)C[C@H](c2ccc(C(=O)N3CCC4(CC3)CCN(c3ccc5nnn(C6CCC(=O)NC6=O)c5c3)CC4)cc2)C1 (stereo partly drawn) [Compound 214]
< 1 | < 1 | CN1C[C@H](Nc2cnn(C)c(=O)c2Cl)C[C@H](c2ccc(C(=O)N3CCC4(CCN(Cc5ccc(C6CCC(=O)NC6=O)c(F)c5)CC4)CC3)cc2)C1 (stereo partly drawn) [Compound 215]
< 1 | < 1 | CCn1ncc(N[C@@H]2C[C@H](c3ccc(C(=O)N4CCC5(CC4)CCN(c4ccc(C6CCC(=O)NC6=O)c(C)c4)CC5)cc3)CN(C)C2)c(Br)c1=O (stereo partly drawn) [Compound 216]
1 to 30 | > 30 | CN1C[C@H](Nc2cnn(C)c(=O)c2Br)C[C@H](c2ccc(C(=O)N3CCC4(CC3)CCN(c3ccn(C5CCC(=O)NC5=O)c(=O)c3)CC4)cc2)C1 (stereo partly drawn) [Compound 217]
< 1 | 1 to 30 | Cc1cc(C2CCC(=O)NC2=O)c(F)cc1N1CCC2(CCN(C(=O)c3ccc([C@H]4C[C@@H](Nc5cnn(C)c(=O)c5Cl)CN(C)C4)cc3)CC2)CC1 (stereo partly drawn) [Compound 218]
< 1 | 1 to 30 | CN1C[C@H](Nc2cnn(C)c(=O)c2Br)C[C@H](c2ccc(C(=O)N3CCC4(CC3)CCN(c3ccc(C5CCC(=O)NC5=O)cc3C(F)(F)F)CC4)cc2)C1 (stereo partly drawn) [Compound 220]
> 30 | > 30 | CN1C[C@H](Nc2cnn(C)c(=O)c2Br)C[C@H](c2ccc(C(=O)N3CCC4(CC3)CCN(c3ccc(C5CCC(=O)NC5=O)c(C(F)(F)F)c3)CC4)cc2)C1 (stereo partly drawn) [Compound 221]
> 30 | > 30 | CN1C[C@H](Nc2cnn(C)c(=O)c2Cl)C[C@H](c2ccc(C(=O)N3CCC4(CC3)CCN(c3ccc(C5CCC(=O)NC5=O)c(C(F)(F)F)c3)CC4)cc2)C1 (stereo partly drawn) [Compound 222]
> 30 | > 30 | Cc1c(N[C@@H]2C[C@H](c3ccc(C(=O)N4CCC5(CC4)CCN(c4ccc(C6CCC(=O)NC6=O)c(C(F)(F)F)c4)CC5)cc3)CN(C)C2)cnn(C)c1=O (stereo partly drawn) [Compound 224]
< 1 | 1 to 30 | Cc1c(N[C@@H]2C[C@H](c3ccc(C(=O)N4CCC5(CC4)CCN(c4ccc(C6CCC(=O)NC6=O)cc4F)CC5)cc3)CN(C)C2)cnn(C)c1=O (stereo partly drawn) [Compound 225]

DC50 (KAT2A) [nM] | DC50 (KAT2B) [nM] | SMILES
< 1 | 1 to 30 | Cc1c(N[C@@H]2C[C@H](c3ccc(C(=O)N4CCC5(CC4)CCN(c4ccc(C6CCC(=O)NC6=O)cc4C(F)(F)F)CC5)cc3)CN(C)C2)cnn(C)c1=O (stereo partly drawn) [Compound 226]
< 1 | 1 to 30 | CN1C[C@H](Nc2cnn(C)c(=O)c2Cl)C[C@H](c2ccc(C(=O)N3CCC4(CC3)CCN(c3ccc(C5CCC(=O)NC5=O)cc3C(F)(F)F)CC4)cc2)C1 (stereo partly drawn) [Compound 227]
1 to 30 | 1 to 30 | Cc1c(N[C@@H]2C[C@H](c3ccc(C(=O)N4CCC5(CC4)CCN(c4cc(C(F)(F)F)c(C6CCC(=O)NC6=O)cn4)CC5)cc3)CN(C)C2)cnn(C)c1=O (stereo partly drawn) [Compound 230]
< 1 | < 1 | CN1C[C@H](Nc2cnn(C)c(=O)c2Cl)C[C@H](c2ccc(C(=O)N3CCC4(CC3)CCN(c3cc(C5CCC(=O)NC5=O)ccn3)CC4)cc2)C1 (stereo partly drawn) [Compound 234]
< 1 | < 1 | Cc1c(N2CCC3(CCN(C(=O)c4ccc([C@H]5C[C@@H](Nc6cnn(C)c(=O)c6Br)CN(C)C5)cc4)CC3)CC2)ccc(C2CCC(=O)NC2=O)c1F (stereo partly drawn) [Compound 235]
< 1 | 1 to 30 | Cc1c(N2CCC3(CCN(C(=O)c4ccc([C@H]5C[C@@H](Nc6cnn(C)c(=O)c6C)CN(C)C5)cc4)CC3)CC2)ccc(C2CCC(=O)NC2=O)c1F (stereo partly drawn) [Compound 236]
< 1 | 1 to 30 | Cc1c(N2CCC3(CCN(C(=O)c4ccc([C@H]5C[C@@H](Nc6cnn(C)c(=O)c6Cl)CN(C)C5)cc4)CC3)CC2)ccc(C2CCC(=O)NC2=O)c1F (stereo partly drawn) [Compound 237]
< 1 | 1 to 30 | Cc1c(N[C@@H]2C[C@H](c3ccc(C(=O)N4CCC5(CC4)CCN(c4ccc(C6CCC(=O)NC6=O)nc4)CC5)cc3)CN(C)C2)cnn(C)c1=O (stereo partly drawn) [Compound 241]
1 to 30 | > 30 | Cc1cc(N2CCC3(CCN(C(=O)c4ccc([C@H]5C[C@@H](Nc6cnn(C)c(=O)c6C)CN(C)C5)cc4)CC3)CC2)c(F)cc1C1CCC(=O)NC1=O (stereo partly drawn) [Compound 244]
< 1 | 1 to 30 | Cc1cc(N2CCC3(CCN(C(=O)c4ccc([C@H]5C[C@@H](Nc6cnn(C)c(=O)c6C)CN(C)C5)cc4)CC3)CC2)cnc1C1CCC(=O)NC1=O (stereo partly drawn) [Compound 245]
< 1 | < 1 | Cc1cc(N2CCC3(CCN(C(=O)c4ccc([C@H]5C[C@@H](Nc6cnn(C)c(=O)c6Br)CN(C)C5)cc4)CC3)CC2)cnc1C1CCC(=O)NC1=O (stereo partly drawn) [Compound 246]
< 1 | 1 to 30 | Cc1cc(N2CCC3(CCN(C(=O)c4ccc([C@H]5C[C@@H](Nc6cnn(C)c(=O)c6Cl)CN(C)C5)cc4)CC3)CC2)cnc1C1CCC(=O)NC1=O (stereo partly drawn) [Compound 247]
< 1 | 1 to 30 | Cc1cc(C2CCC(=O)NC2=O)ccc1N1CCC2(CCN(C(=O)c3ccc([C@H]4C[C@@H](Nc5cnn(C)c(=O)c5Br)CN(C)C4)cc3)CC2)CC1 (stereo partly drawn) [Compound 248]
< 1 | 1 to 30 | Cc1cc(C2CCC(=O)NC2=O)ccc1N1CCC2(CCN(C(=O)c3ccc([C@H]4C[C@@H](Nc5cnn(C)c(=O)c5C)CN(C)C4)cc3)CC2)CC1 (stereo partly drawn) [Compound 249]
< 1 | 1 to 30 | CN1C[C@H](Nc2cnn(C)c(=O)c2Cl)C[C@H](c2ccc(C(=O)N3CCC4(CC3)CCN(c3ccc(C5CCC(=O)NC5=O)c(F)c3F)CC4)cc2)C1 (stereo partly drawn) [Compound 251]
< 1 | 1 to 30 | Cc1c(N[C@@H]2C[C@H](c3ccc(C(=O)N4CCC5(CC4)CCN(c4ccc(C6CCC(=O)NC6=O)c(F)c4F)CC5)cc3)CN(C)C2)cnn(C)c1=O (stereo partly drawn) [Compound 252]
